Values joined by “and” are separate entries in the source; they are usually repeats but may differ in a detail not shown here. Equal values may be shown once.
Experiment: A mix consisting of 20 nM GST-MDM2 protein (aa 23-117) and 20 nM biotinylated p53 wt peptide (encompassing aa 16-27 of wt human p53, amino acid sequence QETFSDLWKLLP-Ttds-Lys-Biotin, molecular weight 2132.56 g/mol) is prepared in assay buffer (50 mM Tris/HCl pH 7.2; 120 mM NaCl; 0.1% bovine serum albumin (BSA); 5 mM dithiothreitol (DTT); 1 mM ethylenediaminetetraacetic acid (EDTA); 0.01% Tween 20). 30 μL of the mix is added to the compound dilutions and incubated for 15 min at rt while gently shaking the plate at 300 rounds per minute (rpm). Subsequently, 15 μL of premixed AlphaLISA Glutathione Acceptor Beads and AlphaScreen Streptavidin Donor Beads from PerkinElmer (in assay buffer at a concentration of 10 μg/mL each) are added and the samples are incubated for 30 min at rt in the dark (shaking 300 rpm). Afterwards, the signal is measured in a PerkinElmer Envision HTS Multilabel Reader using the AlphaScreen protocol from PerkinElmer.Each plate contains negative controls where biotinylated p53-peptide and GST-MDM2 are left out and replaced by assay buffer. Negative control values are entered as low basis value when using the software GraphPad Prism for calculations.

CS(=O)(=O)OCCN1[C@H]2CCn3c(nc4cc(C(=O)O)ccc43)[C@H]2[C@H](c2cccc(Cl)c2F)[C@]12C(=O)Nc1cc(Cl)ccc12
IC50: 58 nM

CC(=O)Nc1ccc2c(c1)nc1n2CC[C@H]2[C@@H]1[C@H](c1cccc(Cl)c1F)[C@]1(C(=O)Nc3cc(Cl)ccc31)N2C(C)C1CC1 (some centres undefined)
IC50: 15 nM

CC(C1CC1)N1[C@H]2CCn3c(nc4cc(S(C)(=O)=O)ccc43)[C@H]2[C@H](c2cccc(Cl)c2F)[C@]12C(=O)Nc1cc(Cl)ccc12 (some centres undefined)
IC50: 12 nM and 7 nM

COC(=O)c1ccc2c(c1)nc1n2CC[C@H]2[C@@H]1[C@H](c1cccc(Cl)c1F)[C@]1(C(=O)Nc3cc(Cl)ccc31)N2CC1CC1
IC50: 3 nM

Source: ChEMBL document CHEMBL5728204, “Spiro[3H-indole-3,2′-pyrrolidin]-2(1H)-one compounds and derivatives as MDM2-P53 inhibitors” (2021)
